In US20110190399A1 (priority 2008, published 2011):

Assays:
[1] = test system: hemozoin synthesis; assay: In vivo inhibition of hemozoin synthesis in P. yoelii infected mice; details: oral, 3 days, curcumin fed bound to chitosan nanoparticles
Description: Infected mice were divided into 4 groups (each having 4 mice), namely: • 1. Control group which was further sub-divided into the infected control group, olive oil control group and chitosan control group • 2. Infected and fed with Chloroquinine (1.7 mg in 100 μl of normal saline/mouse/day orally) • 3. […] Infected and fed with Chitosan nanoparticles (200 micrograms of chitosan/day) orally
Red blood cells were purified on the third day of treatment. […] The cells were centrifuged at 10,000 g for 10 min, supernatant was discarded and the pellet washed in 1 ml of 0.1 M alkaline bicarbonate buffer (pH 9.2).

[2] = Effect on globulin level, eosinophils, neutrophils and platelet count of human volunteers; type: in vivo; details: 500 mg/day/person orally, 15 days
[3] = Effect on hemoglobin and RBC level of human volunteers; type: in vivo; details: 500 mg/day/person orally, 15 days
[4] = Effect on fasting blood sugar levels in human volunteers; type: in vivo; details: 500 mg/day/person orally, 15 days
Text: The results of the analysis are depicted in FIG. 11.

[5] = Effect on kidney function in human volunteers; type: in vivo; details: 500 mg/day/person orally
[6] = Effect on liver inflammation in human volunteers; type: in vivo; details: 500 mg/day/person orally, 15 days
Text: Results of said tests are depicted in FIGS. 15.1-15.5.

levels of eosinophiles, neutrophils and platelets [2] | serum creatinine, urea and potassium levels ([5]; human volunteers, before and after 15 days) | SMILES | hemozoin formation in vivo [1] | blood hemoglobin and RBCs (anemic condition, RBC counts) [3] | fasting glucose level [4] | change in potassium level ([5]; human volunteers (7), 15 days) | change in serum creatinine and urea levels ([5]; human volunteers, 15 days) | ALP and Bilirubin levels [6] | adverse effect on liver function [6]
– | – | CCN(CC)CCCC(C)Nc1ccnc2cc(Cl)ccc12 (stereo not shown) [chloroquine] | inhibited hemozoin formation in vivo | – | – | – | – | – | –
no significant effect | within the normal range | COc1cc(/C=C/C(=O)CC(=O)/C=C/c2ccc(O)c(OC)c2)ccc1O [curcumin, Curcumin] | inhibited hemozoin formation in vivo | no adverse effect | not altered | increase | slight decrease | in the normal range except in one or two cases | do not have any adverse effect on liver function
